Results on six molecules are retold here after ChEMBL document CHEMBL1157092, “Jacaranone-derived glucosidic esters from Jacaranda glabra and their activity against Plasmodium falciparum” (J Nat Prod, 2010).

In brackets after ≈: the same amount, converted by molar mass. Bounds are passed on as bounds.

The test system of test [1] is L6. As to the kind of experiment: Cytotoxicity against rat L6 cells after 72 hrs by alamar blue assay. It is filed as cell-based. Conditions: L6, 72 h. In general terms: The colour change of resazurin is a common sign of viable cells or microbes.
Test [2] relates to Plasmodium falciparum. As to the kind of experiment: Antiplasmodial activity against chloroquine and pyrimethamine-resistant Plasmodium falciparum K1 infected in human erythrocytes after 48 hrs by [3]H-hypoxanthine incorporation assay. Type of test: functional, organism-based. Conditions: K1, 48 h.

Turning to `O=C1C=CC(O)(CC(=O)OC[C@H]2O[C@@H](OC(=O)CC3(O)C=CC(=O)C=C3)[C@H](OC(=O)Cc3ccccc3)[C@@H](OC(=O)Cc3ccccc3)[C@@H]2O)C=C1` [JACAGLABROSIDE A], the figures for the IC50 in test [1] and in test [2] were 8.3 µg/mL (≈ 11.6 µM) and 1.02 µg/mL (≈ 1.42 µM), respectively.
For `O=C1C=CC(O)(CC(=O)OC[C@H]2O[C@@H](OC(=O)CC3(O)C=CC(=O)C=C3)[C@H](OC(=O)Cc3ccccc3)[C@@H](O)[C@@H]2O)C=C1` [JACAGLABROSIDE B] the same measures were greater than 90 µg/mL and 0.56 µg/mL (≈ 0.936 µM).
The like results for `O=C1C=CC(O)(CC(=O)OC[C@H]2O[C@@H](OC(=O)CC3(O)C=CC(=O)C=C3)[C@H](OC(=O)Cc3ccc(O)cc3)[C@@H](OC(=O)Cc3ccccc3)[C@@H]2O)C=C1` [JACAGLABROSIDE C] were, in that order, 87 µg/mL (≈ 119 µM) and 0.56 µg/mL (≈ 0.764 µM).
For `O=C1C=CC(O)(CC(=O)OC[C@H]2O[C@@H](OC(=O)CC3(O)C=CC(=O)C=C3)[C@H](OC(=O)Cc3ccccc3)[C@@H](OC(=O)Cc3ccc(O)cc3)[C@@H]2O)C=C1` [JACAGLABROSIDE D] the same measures were 84.8 µg/mL (≈ 116 µM) and 0.55 µg/mL (≈ 0.751 µM).
For the molecule `COC(=O)CC1(O)C=CC(=O)C=C1` [JACARANONE], the results for the IC50 in test [1] and in test [2] were 1.06 µg/mL (≈ 5.82 µM) and 1.32 µg/mL (≈ 7.25 µM), respectively.
For `O=C(O)Cc1ccccc1` [PHENYLACETIC ACID] the same measures were greater than 90 µg/mL and greater than 5 µg/mL.

What is called IC50 is the midpoint of a concentration-inhibition curve. A higher IC50 goes with lower potency.
